From patent US20260015352A1, “METHYLTRANSFERASE INHIBITOR AND USE THEREOF” (CYTOSINLAB THERAPEUTICS CO., LTD., priority 2022, published 2026)

The compounds below were run on G401 cells (assay: G401 ELISA test). Details: Homo sapiens, G-401; G401 cells treated with compounds for 72 hours; ELISA detecting K27 and H3; read-out: G401_ELISA IC50.
Assay type: cell-based
Method: • Plate Reader: Envision (Perkinelmner); plate shaker: IKA MTS 2/4; plate Washer: BioTek microplate wisher 405 select; Cell counter: Counterstar (Ruiyu-biotech); Cell culture incubator: MCO-15AC (ThermoFisher); Pipette: BioHit Multichannel. Pipette: 0.2-10 μL, 10-300 μL, 50-1200 μL; Centrifuge: Thermo Centrifuge ST 40R; Pure water system: Millipore Milli-Q Reference system; Refrigerator: Haier −80 degree, −20 degree, and 4-degree refrigerators; cell cryopreservation box: Mr. Frosty™ Gradient Cooling Box Cat #5100-0001
• McCoys 5A (Modified) culture medium (ATCC); FBS (Gibco); 0.25% Trypsin/EDTA (Gibco); PBS (Hyclone); Penicillin/Streptomycin(100×) (Gibco); DMSO (Sigma); 384 cell culture plate (Corning); 384 detection plate (Greiner); 96 well plate (compound dilution) (Haimen, Qunchao); T75 Cell Culture Bottle (Corning)
G401 cells were seeded in a 384-well cell culture plate and incubated overnight at 37° C. in a 5% CO2 cell culture incubator, after which the cells were treated with compounds of different concentrations for 72 hours. The 384-well cell culture plate was taken out and upside down in a centrifuge to centrifugeat 300 rpm for 1 minute. After centrifugation, the 384-well cell culture plate was washed twice with PBS, added with lysis solution and lysed for 60 minutes. Then neutralization buffer was added for mixing and incubation was continued for 30 minutes. 20 ul (for detecting K27) and 10 ul (for detecting H3) of cell lysate were extracted from the 384-well cell culture plate and transferred to a 384 ELISA detection plate and incubate overnight at 4° C. The next day, the 384 ELISA plate was taken out and washed 5 times with TBST in a microplate washer. Then, the plate was added with a blocking solution and sealed at room temperature for 1 hour. The blocking solution was discarded and the primary antibody was added and then the plate was incubated at room temperature for 1 hour. After incubation, the plate was washed with TBST 5 times in a microplate washer, then added with secondary antibody and incubated at room temperature for 1 hour. After incubation, the plate was washed with TBST 5 times in a microplate washer, and finally added with color developer for color development. The plate was read with Envision plate reader. The obtained data was converted into inhibition rate using the following calculation method: % Inhibition rate=100−100*(compound absorbance−positive control absorbance)/(negative control absorbance−positive control absorbance), and then the inhibition rate data was subjected to curve fitting using the “logarithmic (inhibitor) and reaction-variable slope (four parameters)” model in GraphPad Prism 5 software.
The inhibition rate of the compound was calculated as follows: […]
The compounds of the present invention were tested according to the above experimental method, and some results were shown in Table 3. The test results were classified by A, B, and C, wherein A represents IC50≤0.1 uM; B represents 0.1 uM<IC50≤1 uM; C represents IC50>1 uM

Row | SMILES | IC50
1 | COc1nccc2ccc(Nc3ccc([C@H](C)Nc4ncc(CCc5cc(C(N)=O)n[nH]5)cn4)cc3F)nc12 [PA245] | > 1000 nM
2 | COc1nccc2ccc(Nc3ccc(C(CO)Nc4ncc(CC(=O)NC5COC5)cn4)cc3F)nc12 (stereo not drawn) [PA236] | 100 to 1000 nM
3 | COc1nccc2ccc(Nc3ccc(CNc4ccc(CC(=O)NC5COC5)cc4)cc3)nc12 [PA081] | 100 to 1000 nM
4 | COc1nccc2ccc(Nc3ccc(CNc4ncc(CNCc5cnn(C)c5)cn4)cc3F)nc12 [PA249] | > 1000 nM
5 | COc1nccc2ccc(NC34CCC(CNc5ncc([C@H](C)C(=O)NC6COC6)cn5)(CC3)CC4)nc12 [PA078] | 100 to 1000 nM
6 | COc1nccc2ccc(Nc3ccc(CNc4ncc(CC(=O)OC(C)(C)C)cn4)cc3)nc12 [PA007] | > 1000 nM
7 | COc1nccc2ccc(NC34CCC(CNc5ncc(CC(=O)NC6COC6)cn5)(CC3)CC4)nc12 [PA079] | ≤ 100 nM
8 | COc1nccc2ccc(Nc3ccc([C@H](C)Nc4ncc(CN5CCS(=O)(=O)CC5)cn4)cc3F)nc12 [PA194] | ≤ 100 nM
9 | O=C(Cc1cnc(NCC23CCC(Nc4ccc5cccc(Cl)c5n4)(CC2)CC3)nc1)NC1COC1 [PA263] | ≤ 100 nM
10 | COc1nccc2ccc(Nc3ccc([C@H](C)Nc4ncc(CC(=O)NC5CS(=O)(=O)C5)cn4)cc3F)nc12 [PA212] | 100 to 1000 nM
11 | COc1nccc2ccc(Nc3ccc(CNc4ncc(CNCC5CCOC5)cn4)cc3F)nc12 (stereo not drawn) [PA220] | 100 to 1000 nM
12 | CNc1nccc2ccc(Nc3ccc(CNc4ncc(CC(=O)NC5COC5)cn4)cc3)nc12 [PA068] | 100 to 1000 nM
13 | COCCNCc1cnc(NCc2ccc(Nc3ccc4ccnc(OC)c4n3)c(F)c2)nc1 [PA247] | > 1000 nM

The remaining lines, values ahead:

Row | IC50 | SMILES
14 | ≤ 100 nM | Cc1ccc2ccc(NC34CCC([C@H](C)Nc5ncc(CNC6CS(=O)(=O)C6)cn5)(CC3)CC4)nc2c1Cl [PA179]
15 | ≤ 100 nM | O=C(Cc1cnc(NCC23CCC(Nc4ccc5ccnc(Cl)c5n4)(CC2)CC3)nc1)NC1COC1 [PA046, 2-[2-[[4-[(8-chloro-1,7-naphthyridin-2-yl)amino]-1-bicyclo[2.2.2]octyl]methylamino]pyrimidin-5-yl]-N-(oxetan-3-yl)acetamide]
16 | ≤ 100 nM | CC(C(=O)N(CCC#N)CCC#N)c1cnc(N[C@@H](C)C23CCC(Nc4ccc5ccnc(Cl)c5n4)(CC2)CC3)nc1 (stereo partly drawn) [PA202]
17 | ≤ 100 nM | CNC(=O)C(NC1CS(=O)(=O)C1)c1cnc(N[C@@H](C)C23CCC(Nc4ccc5ccnc(Cl)c5n4)(CC2)CC3)nc1 (stereo partly drawn) [PA162]
18 | ≤ 100 nM | CC(C(=O)NC1COC1)c1cnc(N[C@@H](C)C23CCC(Nc4ccc5ccnc(Cl)c5n4)(CC2)CC3)nc1 (stereo partly drawn) [PA169, 2-(2-(((S)-1-(4-((8-chloro-1,7-naphthyridin-2-yl)amino)bicyclo[2.2.2]octan-1-yl)ethyl)amino)pyrimidin-5-yl)-N-(oxetan-3-yl)propanamide]
19 | ≤ 100 nM | C[C@H](Nc1ncc(CC(=O)NC2COC2)cn1)C12CCC(Nc3ccc4ccnc(Cl)c4n3)(CC1)CC2 [PA176]
20 | ≤ 100 nM | O=C(Cc1cnc(NC(CO)C23CCC(Nc4ccc5ccnc(Cl)c5n4)(CC2)CC3)nc1)NC1COC1 (stereo not drawn) [PA264]
21 | ≤ 100 nM | COc1nccc2ccc(Nc3ccc([C@H](C)Nc4ncc(CC(=O)NC5COC5)cn4)cc3F)nc12 [PA193]
22 | ≤ 100 nM | Cc1ccc2ccc(Nc3ccc([C@H](C)Nc4ncc(CN(CCO)C5CS(=O)(=O)C5)cn4)cc3F)nc2c1Cl [PA266]
23 | ≤ 100 nM | C[C@H](Nc1ncc(CNC2CS(=O)(=O)C2)cn1)C12CCC(Nc3ccc4ccnc(Cl)c4n3)(CC1)CC2 [PA165]
24 | ≤ 100 nM | CC(C(=O)NC1COC1)c1cnc(N[C@@H](C)C23CCC(Nc4ccc5ccnc(Cl)c5n4)(CC2)CC3)nc1 (single isomer, unassigned) [PA166]
